In US10793543B2, “Selective C-KIT kinase inhibitor” (PRECEDO PHARMACEUTICALS CO., LTD, priority 2016, dated 2020):

Legend:
[1] = system: K562 cells (P210 Bcr-Abl); assay: Cancer cell proliferation, CCK-8, K562; type: cell-based; details: Homo sapiens; K562, P210 Bcr-Abl, 72 hours, CCK-8; read-out: GI50
Description: (§1) In the present example, the following cells were used: chronic myelogenous leukemia cells K562 (expressing P210 Bcr-Abl mutant gene), human megakaryocytic leukemia cells MEG-01 (expressing P210 Bcr-Abl mutant gene), human peripheral blood basophilic leukemia cells Ku812 (expressing Bcr-Abl mutant gene) (all above cells purchased from ATCC, USA), human gastrointestinal stromal tumor cell lines GIST-T1 cells (expressing wild-type C-KIT gene) (purchased from Cosmo Bio Co., Ltd., Japan), human gastrointestinal stromal tumor cell lines GIST-882 cells (expressing wild-type C-KIT gene) (presented by the Professor Gray Lab, Dana-Farber Cancer Institute, Harvard University, USA), mouse pro-B cells BaF3 (purchased from ATCC, USA).
(§2) The cells were incubated for 72 hours, and then the number of viable cells was quantified with a microplate reader by using CCK-8 Cell Viability Assay Kit (purchased from Bestbio Company, Shanghai, China) (CCK-8 can be reduced by dehydrogenase in living cells to a highly water-soluble yellow formazan product, and the amount of formazan produced is proportional to the number of living cells).

GIST-T1 cells = assay: Apoptosis, PARP and Caspase 3 cleavage by Western Blot, GIST-T1; type: cell-based, human; details: GIST-T1, 0.3 μM, 48 hours
Description: The effects of different concentrations of drugs on protein cleavage of DNA repairase poly(ADP-ribose) polymerase (PARP) and Caspase (cysteinyl aspartate-specific proteinase) 3 at different periods of time were examined by Western Blot.

BaF3 cells = assay: Cell proliferation, CCK-8, parental BaF3; type: cell-based; details: Mus musculus, 72 hours
Description: as §1, §2

GIST-882 cells = assay: Cell cycle distribution by flow cytometry, GIST-882; type: cell-based, human; details: GIST-882, treated 48 hours
[2] = system: Tel-cKit/T670I-BaF3 cells (KIT T670I); assay: Cell proliferation, CCK-8, Tel-cKit/T670I-BaF3; type: cell-based; details: Mus musculus, 72 hours
Description: (§3) In addition, in the present example, further uses: mouse P210/BaF3 (stably expressing P210 Bcr-Abl mutant gene), mouse Tel-ABL-BaF3 (stably expressing wild-type ABL kinase), mouse Tel-cKit-BaF3 (stably expressing C-KITwild-type kinase), mouse Tel-cKit/V559D-BaF3 (stably expressing C-KIT V559D mutant kinase), mouse Tel-cKit/V559D/V654A-BaF3 (stably expressing C-KIT V559D/V654A mutant kinase), mouse Tel-cKit/N822K-BaF3 (stably expressing C-KIT N822K mutant kinase), mouse Tel-cKit/V654A-BaF3 (stably expressing C-KIT V654A mutant kinase), mouse Tel-cKit/L567P-BaF3 (stably expressing C-KIT L567P mutant kinase), mouse Tel-cKit/T670I-BaF3 (stably expressing C-KIT T670I mutant kinase), mouse Tel-PDGFRα-BaF3 (stably expressing PDGFRα kinase), mouse Tel-PDGFRβ-BaF3 (stably expressing PDGFRβ kinase), mouse Tel-VEGFR2-BaF3 (stably expressing VEGFR2 kinase), mouse Tel-RET-BaF3 (stably expressing RET kinase). The above cell lines were all constructed by our laboratory according to the following method: the kinase region sequences of human P210 Bcr-Abl, ABL, C-KIT, C-KIT V559D, C-KIT V559D/V654A, C-KIT N822K, C-KIT V654A, C-KIT L567P, C-KIT T670I, PDGFRα, PDGFRβ, VEGFR2, RET were amplified respectively by PCR, inserted respectively into MSCV-Puro vectors harboring N-terminal TEL fragment and/or NPM fragment and/or TPR fragment (Clontech), then the vectors were stably transfected into mouse BaF3 cells by retrovirus methods and growth factor IL-3 was removed, eventually obtaining cell lines that are transferred protein (P210 Bcr-Abl, ABL, C-KIT, C-KIT V559D, C-KIT V559D/V654A, C-KIT N822K, C-KIT V654A, C-KIT L567P, C-KIT T670I, PDGFRα, PDGFRβ, VEGFR2, RET)-dependent.
as §2

[3] = system: phosphorylation of Bcr-Abl kinase and pathway proteins in K562 cells; assay: Effects on cell signaling pathways (phosphorylation), K562; type: cell-based, human; details: K562, concentration up to 3 μM, 2 hours
[4] = Acute toxicity assay in mice, single oral gavage; type: in vivo; details: for Number of death (number of death/number of animals in each group): female mice, 7 days observation
Description: 1. 4-6 week-old Bal b/c female mice were purchased from Shanghai SLAC Experimental Animal Co., Ltd., and were raised in a SPF-level laboratory. Drinking water and padding were both subjected to aseptic processing via high-pressure disinfection, and all operations of the mice were conducted under aseptic conditions; 10 healthy mice were selected, and were balanced and randomly divided into 5 groups according to their weights.
2. Specific Information for Administration
Route of administration: oral gavage
Observation period: 7 days.
3. Observation Indicators
Weighing frequency: upon grouping, the day of administration (D0) to the seventh day after administration (D7). Based on the mouse weight on D0 (starting value of 100%), the graph of the relative body weight over time was plotted.
3.2. Clinical Symptoms Observation
Strict observation was carried out within 4 hours after administration, and then observation was carried out twice a day for a total of 7 days. Observation was carried out and abnormal symptoms or phenomena in each of animals were recorded.
The number of animals died in each of dosage groups during the observation period.
Comprehensive determination was performed based on animal mortality, clinical symptoms and body weights.

[5] = system: Tel-VEGFR2-BaF3 cells (VEGFR2); assay: Cell proliferation, CCK-8, Tel-VEGFR2-BaF3; type: cell-based; details: Mus musculus, Tel-VEGFR2-BaF3, VEGFR2, 72 hours
Description: as §3, §2

## Cc1ccc(NC(=O)c2cccc(C(F)(F)F)c2)cc1OC1CCN(C(=O)c2ccncc2)CC1 [Compound 4]
[1]
  GI50: > 10 µM
GIST-T1 cells
  cleavage of PARP and Caspase 3: significant cleavage
BaF3 cells
  GI50: > 10 µM
GIST-882 cells
  effect on cell cycle: significantly blocked in the GO-G1 phase
[2]
  GI50: 5.31 µM
[3]
  phosphorylation of Bcr-Abl kinase: no effect
  phosphorylation of proteins such as AKT, ErK: no effect
[4]; 250 mg/kg single oral gavage
  Number of death (number of death/number of animals in each group): ♀: 0/2:
[4]; 500 mg/kg single oral gavage
  Number of death (number of death/number of animals in each group): ♀: 0/2:
[4]; 1000 mg/kg single oral gavage
  effect on mouse weight: no significant effect on mouse weight
  Number of death (number of death/number of animals in each group): ♀: 0/2:
[4]; 2000 mg/kg single oral gavage
  effect on mouse weight: decreased slightly
  Number of death (number of death/number of animals in each group): ♀: 0/2:
[4]; dissected after 7 days, single oral gavage
  mouse organs on dissection: no obvious abnormalities
[4]; mouse, in vivo
  mice died: no mouse died
[4]; mouse, single oral gavage
  maximum tolerated dosage: 2000 mg/kg
[5]
  GI50: 0.347 µM
